Data taken from patent publication US6358885B1, “Substituted phenylheterocyclic herbicides” (Mississippi State University, priority 1992, dated 2002).

Key:
corn [1] = assay: Test B preemergence/postemergence greenhouse plant response rating 0 to 10; format: in vivo, Zea mays; conditions: 0 to 10 scale
Outline: (§1)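 Both application timings were run together: seeds got compound preemergence, and established seedlings (two to eighteen cm) got it postemergence. Non-phytotoxic solvent carried the chemical. Ratings are visual, versus controls, at twelve to sixteen days.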

sorghum = assay: as above; format: in vivo, Sorghum bicolor; conditions: 0 to 10 scale
Outline: as §1

ryegrass = assay: Test C preemergence/postemergence greenhouse plant response rating 0 to 100; format: in vivo, Lolium multiflorum; conditions: PREEMERGENCE; for Plant response rating Ryegrass: 0 to 100 scale
From the text: (§2) The compounds evaluated in this test were formulated in a non-phytoxic solvent and applied to the soil surface before plant seedlings emerged (preemergence application), to water that covered the soil surface (flood application), and to plants that were in the one-to-four leaf stage (postemergence application). A sandy loam soil was used for the preemergence and postemergence tests, while a silt loam soil was used in the flood test. Water depth was approximately 2.5 cm for the flood test and was maintained at this level for the duration of the test. Plant species in the preemergence and postemergence tests consisted of barley (Hordeum vulgare), bedstraw (Galium aparine), blackgrass (Alopecurus myosuroides), chickweed (Stellaria media), corn (Zea mays), cotton (Gossypium hirsutum), crabgrass (Digitaria sanguinalis), downy brome (Bromus tectorum), giant foxtail (Setaria faberii), lambsquarters (Chenopodium album), morningglory (Ipomoea hederacea), pigweed ([…]), rape (Brassica napus), ryegrass (Lolium multiflorum), sorghum (Sorghum bicolor), soybean (Glycine max), speedwell (Veronica persica), sugar beet (Beta vulgaris), velvetleaf (Abutilon theophrasti), wheat (Triticum aestivum), wild buckwheat (Polygonum convolvulus), and wild oat (Avena fatua). All plant species were planted one day before application of the compound for the preemergence portion-of this test. Plantings of these species were adjusted to produce plants of appropriate size for the post-emergence portion of the test. […] All plant species were grown using normal greenhouse practices. Visual evaluations of injury expressed on treated plants, when compared to untreated controls, were recorded approximately fourteen to twenty one days after application of the test compound. […] A dash (-) response means no test result.

velvetleaf = assay: Test B preemergence/postemergence greenhouse plant response rating 0 to 10; format: in vivo, Abutilon theophrasti; conditions: 0 to 10 scale
Outline: as §1

morningglory = assay: Test C preemergence/postemergence greenhouse plant response rating 0 to 100; format: in vivo, Ipomoea hederacea; conditions: PREEMERGENCE; for Plant response rating, Morningglory: 0 to 100 scale
From the text: as §2

sugar beet = assay: Test B preemergence/postemergence greenhouse plant response rating 0 to 10; format: in vivo, Beta vulgaris; conditions: 0 to 10 scale
Outline: as §1

wheat = assay: Test C preemergence/postemergence greenhouse plant response rating 0 to 100; format: in vivo, Triticum aestivum; conditions: PREEMERGENCE
From the text: as §2

purple nutsedge = assay: Test B preemergence/postemergence greenhouse plant response rating 0 to 10; format: in vivo, Cyperus rotundus; conditions: 0 to 10 scale
Outline: as §1

bedstraw = assay: Test C preemergence/postemergence greenhouse plant response rating 0 to 100; format: in vivo, Galium aparine; conditions: PREEMERGENCE; for Plant response rating, Bedstraw: 0 to 100 scale
From the text: as §2

rape = assay: as above; format: in vivo, Brassica napus; conditions: PREEMERGENCE; for Plant response rating, Rape: 0 to 100 scale
From the text: as §2

barnyardgrass = assay: Test B preemergence/postemergence greenhouse plant response rating 0 to 10; format: in vivo, Echinochloa crus-galli; conditions: 0 to 10 scale
Outline: as §1

crabgrass = assay: Test C preemergence/postemergence greenhouse plant response rating 0 to 100; format: in vivo, Digitaria sanguinalis; conditions: PREEMERGENCE; for Plant response rating, Crabgrass: 0 to 100 scale
From the text: as §2

blackgrass = assay: Test B preemergence/postemergence greenhouse plant response rating 0 to 10; format: in vivo, Alopecurus myosuroides; conditions: 0 to 10 scale
Outline: as §1

barley = assay: as above; format: in vivo, Hordeum vulgare; conditions: 0 to 10 scale
Outline: as §1

corn [2] = assay: Test C preemergence/postemergence greenhouse plant response rating 0 to 100; format: in vivo, Zea mays; conditions: PREEMERGENCE; for Plant response rating, Corn: 0 to 100 scale
From the text: as §2

chickweed = assay: Test B preemergence/postemergence greenhouse plant response rating 0 to 10; format: in vivo, Stellaria media; conditions: 0 to 10 scale
Outline: as §1

wild oat = assay: Test C preemergence/postemergence greenhouse plant response rating 0 to 100; format: in vivo, Avena fatua; conditions: PREEMERGENCE
From the text: as §2

`CCCN1C(=O)COc2cc(F)c(-c3nn4c(c3Br)CCCC4)cc21` [Compound 63] was tested, and the “Plant response rating, Corn” value (corn [1]; POSTEMERGENCE, Rate 10 g/ha) was 2, the “Plant response rating, Corn” value (corn [1]; POSTEMERGENCE, Rate 50 g/ha) was 2 and the “Plant response rating, Corn” value (corn [1]; PREEMERGENCE, Rate 50 g/ha) was 0. The “Plant response rating, Sorghum” value (sorghum; POSTEMERGENCE, Rate 10 g/ha) was 3, the “Plant response rating, Sorghum” value (sorghum; POSTEMERGENCE, Rate 50 g/ha) was 5 and the “Plant response rating, Sorghum” value (sorghum; PREEMERGENCE, Rate 50 g/ha) was 0. The “Plant response rating Ryegrass” value (ryegrass; 62 g/ha) was 40, the “Plant response rating Ryegrass” value (ryegrass; 250 g/ha) was 80 and the “Plant response rating (0 to 100), Ryegrass” value (ryegrass; Rate 4 g/ha) was 0. For the same compound, the “Plant response rating (0 to 100), Ryegrass” value (ryegrass; Rate 16 g/ha) was 0, the “Plant response rating, Velvetleaf” value (velvetleaf; POSTEMERGENCE, Rate 10 g/ha) was 8 and the “Plant response rating, Velvetleaf” value (velvetleaf; POSTEMERGENCE, Rate 50 g/ha) was 10. For the same compound, the “Plant response rating, Velvetleaf” value (velvetleaf; PREEMERGENCE, Rate 50 g/ha) was 7, the “Plant response rating, Morningglory” value (morningglory; 62 g/ha) was 40 and the “Plant response rating, Morningglory” value (morningglory; 250 g/ha) was 100. For the same compound, the “Plant response rating (0 to 100), Morningglory” value (morningglory; Rate 4 g/ha) was 0, the “Plant response rating (0 to 100), Morningglory” value (morningglory; Rate 16 g/ha) was 10 and the “Plant response rating, Sugar beet” value (sugar beet; POSTEMERGENCE, Rate 10 g/ha) was 10. The “Plant response rating, Sugar beet” value (sugar beet; POSTEMERGENCE, Rate 50 g/ha) was 10, the “Plant response rating, Sugar beet” value (sugar beet; PREEMERGENCE, Rate 50 g/ha) was 10 and the “Plant response rating, Wheat” value (wheat; 250 g/ha, 0 to 100 scale) was 50. For the same compound, the “Plant response rating (0 to 100), Wheat” value (wheat; Rate 4 g/ha) was 0, the “Plant response rating (0 to 100), Wheat” value (wheat; Rate 16 g/ha) was 0 and the “Plant response rating, Nutsedge” value (purple nutsedge; POSTEMERGENCE, Rate 10 g/ha) was 1. The “Plant response rating, Nutsedge” value (purple nutsedge; POSTEMERGENCE, Rate 50 g/ha) was 6, the “Plant response rating, Nutsedge” value (purple nutsedge; PREEMERGENCE, Rate 50 g/ha) was 0 and the “Plant response rating, Bedstraw” value (bedstraw; 62 g/ha) was 100. For the same compound, the “Plant response rating, Bedstraw” value (bedstraw; 250 g/ha) was 100, the “Plant response rating (0 to 100), Bedstraw” value (bedstraw; Rate 4 g/ha) was 0 and the “Plant response rating (0 to 100), Bedstraw” value (bedstraw; Rate 16 g/ha) was 10. For the same compound, the “Plant response rating, Rape” value (rape; 62 g/ha) was 85, the “Plant response rating, Rape” value (rape; 250 g/ha) was 100 and the “Plant response rating (0 to 100), Rape” value (rape; Rate 4 g/ha) was 0. The “Plant response rating (0 to 100), Rape” value (rape; Rate 16 g/ha) was 20, the “Plant response rating, Barnyardgrass” value (barnyardgrass; POSTEMERGENCE, Rate 10 g/ha) was 3 and the “Plant response rating, Barnyardgrass” value (barnyardgrass; POSTEMERGENCE, Rate 50 g/ha) was 5. The “Plant response rating, Barnyardgrass” value (barnyardgrass; PREEMERGENCE, Rate 10 g/ha) was 0, the “Plant response rating, Barnyardgrass” value (barnyardgrass; PREEMERGENCE, Rate 50 g/ha) was 0 and the “Plant response rating, Crabgrass” value (crabgrass; 62 g/ha) was 0. For the same compound, the “Plant response rating, Crabgrass” value (crabgrass; 250 g/ha) was 70, the “Plant response rating (0 to 100), Crabgrass” value (crabgrass; Rate 4 g/ha) was 0 and the “Plant response rating (0 to 100), Crabgrass” value (crabgrass; Rate 16 g/ha) was 0. For the same compound, the “Plant response rating, Blackgrass” value (blackgrass; POSTEMERGENCE, Rate 10 g/ha) was 4, the “Plant response rating, Blackgrass” value (blackgrass; POSTEMERGENCE, Rate 50 g/ha) was 4 and the “Plant response rating, Blackgrass” value (blackgrass; PREEMERGENCE, Rate 10 g/ha) was 0. The “Plant response rating, Blackgrass” value (blackgrass; PREEMERGENCE, Rate 50 g/ha) was 3, the “Plant response rating, Barley” value (barley; POSTEMERGENCE, Rate 10 g/ha) was 4 and the “Plant response rating, Barley” value (barley; POSTEMERGENCE, Rate 50 g/ha) was 5. The “Plant response rating, Barley” value (barley; PREEMERGENCE, Rate 10 g/ha) was 0, the “Plant response rating, Barley” value (barley; PREEMERGENCE, Rate 50 g/ha) was 0 and the “Plant response rating, Corn” value (corn [2]; 62 g/ha) was 20. For the same compound, the “Plant response rating, Corn” value (corn [2]; 250 g/ha) was 30, the “Plant response rating (0 to 100), Corn” value (corn [2]; Rate 4 g/ha) was 0 and the “Plant response rating (0 to 100), Corn” value (corn [2]; Rate 16 g/ha) was 0. The “Plant response rating, Chickweed” value (chickweed; POSTEMERGENCE, Rate 10 g/ha) was 5, the “Plant response rating, Chickweed” value (chickweed; POSTEMERGENCE, Rate 50 g/ha) was 9 and the “Plant response rating, Chickweed” value (chickweed; PREEMERGENCE, Rate 10 g/ha) was 0. For the same compound, the “Plant response rating, Chickweed” value (chickweed; PREEMERGENCE, Rate 50 g/ha) was 9, the “Plant response rating, Wild oat” value (wild oat; 250 g/ha, 0 to 100 scale) was 85 and the “Plant response rating (0 to 100), Wild oat” value (wild oat; Rate 4 g/ha) was 0. The “Plant response rating (0 to 100), Wild oat” value (wild oat; Rate 16 g/ha) was 0.
